{
  "source": "patent US20020048549A1",
  "about": "“Radioactive transition metal nitride heterocomplex” (priority 1996, published 2002)",
  "assay": "Biodistribution of 99mTc(N)(X)(DTC)+ heterocomplexes in rats",
  "format": "in vivo, male Spraque-Dawley rats (SD rats)",
  "description": "The biodistribution of a ^99mTc nitride heterocomplex represented by the general formula ^99mTc(N)(X)(Y) was investigated as follows: ^99mTc nitride heterocomplexes were synthesized using DTC as a bidentate ligand Y and each of the diphosphine compounds X described below, and the biodistribution in rats of each heterocomplex was investigated.\nBefore being injected into rats, the contents of the vial were diluted with phosphate buffer (0.1 mol/dm^3, pH=7.06) containing 10% Tween 80 ([…]). The complexes were stable in the solutions and in human plasma for at least 6 hours.\nThe biodistribution was measured using male Spraque-Dawley rats (SD rats) weighing 200 to 250 g. After 24 hours fasting, the rats were put under intraperitoneal anesthesia and given an injection in the jugular vein. Then, the organs were excised from the rats at different intervals of time, washed and then weighed. In addition, blood samples were collected and then weighed. The data on the biodistribution are expressed as the mean±significant difference of the percentage of radioactivity level per gram of the organ weight based on the dose of radioactivity, (% dose/g). The measurement was carried out using groups of 5 rats each.",
  "note": "Where two headings read alike, the source gives them in different places.",
  "data": [
    {"smiles": "CCCN1CC[P+](c2ccccc2)(c2ccccc2)[99Tc-2]2(#[N])([NH]N(C)C(SC)=[S+]2)[P+](c2ccccc2)(c2ccccc2)CC1", "note": "[^99mTc(N)(PNP1)(DTC)^+]", "values": [
      {"measurement": "Bone % dose/g", "result": "0.244 ± 0.01", "unit": "% dose/g"},
      {"measurement": "Heart % dose/g", "result": "1.236 ± 0.08", "unit": "% dose/g"},
      {"measurement": "Liver % dose/g", "result": "3.593 ± 0.42", "unit": "% dose/g"},
      {"measurement": "Spleen % dose/g", "result": "1.948 ± 0.20", "unit": "% dose/g"},
      {"measurement": "Blood % dose/g", "setting": "0 min after injection", "result": "2.125 ± 0.3", "unit": "% dose/g"},
      {"measurement": "Brain % dose/g", "setting": "0 min after injection", "result": "0.143 ± 0.02", "unit": "% dose/g"},
      {"measurement": "Intestine % dose/g", "setting": "0 min after injection", "result": "0.418 ± 0.03", "unit": "% dose/g"},
      {"measurement": "Kidney % dose/g", "setting": "0 min after injection", "result": "2.66 ± 0.05", "unit": "% dose/g"},
      {"measurement": "Lung % dose/g", "setting": "0 min after injection", "result": "5.815 ± 0.04", "unit": "% dose/g"},
      {"measurement": "Muscle % dose/g", "setting": "0 min after injection", "result": "0.098 ± 0.00", "unit": "% dose/g"},
      {"measurement": "Stomach % dose/g", "setting": "0 min after injection", "result": "0.337 ± 0.00", "unit": "% dose/g"},
      {"measurement": "Blood % dose/g", "setting": "2 min after injection", "result": "1.062 ± 0.13", "unit": "% dose/g"},
      {"measurement": "Bone % dose/g", "setting": "2 min after injection", "result": "0.234 ± 0.06", "unit": "% dose/g"},
      {"measurement": "Brain % dose/g", "setting": "2 min after injection", "result": "0.086 ± 0.00", "unit": "% dose/g"},
      {"measurement": "Heart % dose/g", "setting": "2 min after injection", "result": "0.824 ± 0.01", "unit": "% dose/g"},
      {"measurement": "Intestine % dose/g", "setting": "2 min after injection", "result": "0.471 ± 0.00", "unit": "% dose/g"},
      {"measurement": "Kidney % dose/g", "setting": "2 min after injection", "result": "4.145 ± 0.64", "unit": "% dose/g"},
      {"measurement": "Liver % dose/g", "setting": "2 min after injection", "result": "5.555 ± 0.83", "unit": "% dose/g"},
      {"measurement": "Lung % dose/g", "setting": "2 min after injection", "result": "4.653 ± 0.65", "unit": "% dose/g"},
      {"measurement": "Muscle % dose/g", "setting": "2 min after injection", "result": "0.085 ± 0.01", "unit": "% dose/g"},
      {"measurement": "Spleen % dose/g", "setting": "2 min after injection", "result": "4.459 ± 0.09", "unit": "% dose/g"},
      {"measurement": "Stomach % dose/g", "setting": "2 min after injection", "result": "0.379 ± 0.02", "unit": "% dose/g"},
      {"measurement": "Blood % dose/g", "setting": "10 min after injection", "result": "0.495 ± 0.01", "unit": "% dose/g"},
      {"measurement": "Bone % dose/g", "setting": "10 min after injection", "result": "0.3 ± 0.05", "unit": "% dose/g"},
      {"measurement": "Brain % dose/g", "setting": "10 min after injection", "result": "0.041 ± 0.00", "unit": "% dose/g"},
      {"measurement": "Heart % dose/g", "setting": "10 min after injection", "result": "0.795 ± 0.06", "unit": "% dose/g"},
      {"measurement": "Intestine % dose/g", "setting": "10 min after injection", "result": "0.704 ± 0.08", "unit": "% dose/g"},
      {"measurement": "Kidney % dose/g", "setting": "10 min after injection", "result": "4.251 ± 0.02", "unit": "% dose/g"},
      {"measurement": "Liver % dose/g", "setting": "10 min after injection", "result": "5.795 ± 0.03", "unit": "% dose/g"},
      {"measurement": "Lung % dose/g", "setting": "10 min after injection", "result": "3.191 ± 0.60", "unit": "% dose/g"},
      {"measurement": "Muscle % dose/g", "setting": "10 min after injection", "result": "0.121 ± 0.02", "unit": "% dose/g"},
      {"measurement": "Spleen % dose/g", "setting": "10 min after injection", "result": "7.237 ± 0.88", "unit": "% dose/g"},
      {"measurement": "Stomach % dose/g", "setting": "10 min after injection", "result": "0.438 ± 0.03", "unit": "% dose/g"},
      {"measurement": "Blood % dose/g", "setting": "30 min after injection", "result": "0.285 ± 0.01", "unit": "% dose/g"},
      {"measurement": "Bone % dose/g", "setting": "30 min after injection", "result": "0.324 ± 0.05", "unit": "% dose/g"},
      {"measurement": "Brain % dose/g", "setting": "30 min after injection", "result": "0.027 ± 0.00", "unit": "% dose/g"},
      {"measurement": "Heart % dose/g", "setting": "30 min after injection", "result": "0.513 ± 0.07", "unit": "% dose/g"},
      {"measurement": "Intestine % dose/g", "setting": "30 min after injection", "result": "1.107 ± 0.31", "unit": "% dose/g"},
      {"measurement": "Kidney % dose/g", "setting": "30 min after injection", "result": "4.095 ± 0.73", "unit": "% dose/g"},
      {"measurement": "Liver % dose/g", "setting": "30 min after injection", "result": "5.976 ± 0.49", "unit": "% dose/g"},
      {"measurement": "Lung % dose/g", "setting": "30 min after injection", "result": "2.089 ± 0.16", "unit": "% dose/g"},
      {"measurement": "Muscle % dose/g", "setting": "30 min after injection", "result": "0.106 ± 0.00", "unit": "% dose/g"},
      {"measurement": "Spleen % dose/g", "setting": "30 min after injection", "result": "5.884 ± 2.7", "unit": "% dose/g"},
      {"measurement": "Stomach % dose/g", "setting": "30 min after injection", "result": "0.444 ± 0.09", "unit": "% dose/g"},
      {"measurement": "Blood % dose/g", "setting": "1 hr after injection", "result": "0.311 ± 0.03", "unit": "% dose/g"},
      {"measurement": "Bone % dose/g", "setting": "1 hr after injection", "result": "0.398 ± 0.12", "unit": "% dose/g"},
      {"measurement": "Brain % dose/g", "setting": "1 hr after injection", "result": "0.019 ± 0.00", "unit": "% dose/g"},
      {"measurement": "Heart % dose/g", "setting": "1 hr after injection", "result": "0.55 ± 0.04", "unit": "% dose/g"},
      {"measurement": "Intestine % dose/g", "setting": "1 hr after injection", "result": "0.896 ± 0.04", "unit": "% dose/g"},
      {"measurement": "Kidney % dose/g", "setting": "1 hr after injection", "result": "4.779 ± 0.21", "unit": "% dose/g"},
      {"measurement": "Liver % dose/g", "setting": "1 hr after injection", "result": "5.116 ± 0.00", "unit": "% dose/g"},
      {"measurement": "Lung % dose/g", "setting": "1 hr after injection", "result": "1.586 ± 0.16", "unit": "% dose/g"},
      {"measurement": "Muscle % dose/g", "setting": "1 hr after injection", "result": "0.302 ± 0.39", "unit": "% dose/g"},
      {"measurement": "Spleen % dose/g", "setting": "1 hr after injection", "result": "6.711 ± 1.27", "unit": "% dose/g"},
      {"measurement": "Stomach % dose/g", "setting": "1 hr after injection", "result": "0.625 ± 0.34", "unit": "% dose/g"},
      {"measurement": "Blood % dose/g", "setting": "2 hr after injection", "result": "0.22 ± 0.05", "unit": "% dose/g"},
      {"measurement": "Bone % dose/g", "setting": "2 hr after injection", "result": "0.347 ± 0.01", "unit": "% dose/g"},
      {"measurement": "Brain % dose/g", "setting": "2 hr after injection", "result": "0.025 ± 0.00", "unit": "% dose/g"},
      {"measurement": "Heart % dose/g", "setting": "2 hr after injection", "result": "0.603 ± 0.05", "unit": "% dose/g"},
      {"measurement": "Intestine % dose/g", "setting": "2 hr after injection", "result": "0.977 ± 0.42", "unit": "% dose/g"},
      {"measurement": "Kidney % dose/g", "setting": "2 hr after injection", "result": "5.327 ± 0.52", "unit": "% dose/g"},
      {"measurement": "Liver % dose/g", "setting": "2 hr after injection", "result": "3.524 ± 0.53", "unit": "% dose/g"},
      {"measurement": "Lung % dose/g", "setting": "2 hr after injection", "result": "1.716 ± 0.23", "unit": "% dose/g"},
      {"measurement": "Muscle % dose/g", "setting": "2 hr after injection", "result": "0.111 ± 0.01", "unit": "% dose/g"},
      {"measurement": "Spleen % dose/g", "setting": "2 hr after injection", "result": "4.747 ± 1.78", "unit": "% dose/g"},
      {"measurement": "Stomach % dose/g", "setting": "2 hr after injection", "result": "0.776 ± 0.07", "unit": "% dose/g"},
      {"measurement": "Blood % dose/g", "setting": "4 hr after injection", "result": "0.137 ± 0.02", "unit": "% dose/g"},
      {"measurement": "Bone % dose/g", "setting": "4 hr after injection", "result": "0.264 ± 0.10", "unit": "% dose/g"},
      {"measurement": "Brain % dose/g", "setting": "4 hr after injection", "result": "0.021 ± 0.00", "unit": "% dose/g"},
      {"measurement": "Heart % dose/g", "setting": "4 hr after injection", "result": "0.382 ± 0.04", "unit": "% dose/g"},
      {"measurement": "Intestine % dose/g", "setting": "4 hr after injection", "result": "0.906 ± 0.24", "unit": "% dose/g"},
      {"measurement": "Kidney % dose/g", "setting": "4 hr after injection", "result": "4.282 ± 0.67", "unit": "% dose/g"},
      {"measurement": "Liver % dose/g", "setting": "4 hr after injection", "result": "2.604 ± 0.25", "unit": "% dose/g"},
      {"measurement": "Lung % dose/g", "setting": "4 hr after injection", "result": "1.08 ± 0.16", "unit": "% dose/g"},
      {"measurement": "Muscle % dose/g", "setting": "4 hr after injection", "result": "0.077 ± 0.01", "unit": "% dose/g"},
      {"measurement": "Spleen % dose/g", "setting": "4 hr after injection", "result": "6.294 ± 1.29", "unit": "% dose/g"},
      {"measurement": "Stomach % dose/g", "setting": "4 hr after injection", "result": "0.719 ± 0.18", "unit": "% dose/g"}
    ]}
  ]
}
